Several values for one entry are separate records, joined by “and”; a condition that tells them apart may be missing. Equal entries are not always repeated.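 Exposure lasted 48 hours, with cells grown in 96-well plates and compounds tested at five concentrations. The concentration for 50% growth inhibition is given as GI50. At the TGI there is no net growth.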
What was measured:
Experiment in all cases: DTP human tumour cell line panel, 48 h
[1] = tested on: COLO 205 colon
[2] = tested on: SK-OV-3 ovarian
[3] = tested on: U251 CNS
[4] = tested on: EKVX NSCLC
[5] = tested on: HOP-92 NSCLC
[6] = tested on: HS 578T breast
[7] = tested on: CCRF-CEM leukemia
[8] = tested on: SR leukemia
[9] = tested on: OVCAR-3 ovarian
[10] = tested on: SF-268 CNS

SMILES | TGI [1] | TGI [2] | TGI [3] | TGI [4] | TGI [5] | TGI [6] | TGI [7] | TGI [8] | TGI [9] | TGI [10] | GI50 [5] | GI50 [2] | GI50 [6] | GI50 [8]
COC(=O)c1ccc(/C=C2\CCc3ccccc3C2=O)cc1 | > 100 µM | > 100 µM | > 100 µM | > 100 µM | > 100 µM | > 100 µM | > 100 µM | > 100 µM | > 100 µM | > 100 µM | – | – | – | –
C/C(=N\Nc1ccccc1)C(CN(C)C)C(c1ccccc1)c1c(O)c2ccccc2oc1=O (centres undefined) | > 100 µM | > 100 µM | > 100 µM | > 100 µM | 97 µM | > 100 µM | > 100 µM | > 100 µM | > 100 µM | > 100 µM | – | – | – | –
O=C1CC2(CCNCC2)C(=O)N1N1CCOCC1 | > 100 µM | > 100 µM | > 100 µM | > 100 µM | > 100 µM | > 100 µM | > 100 µM | > 100 µM | > 100 µM | > 100 µM | – | – | – | –
CC(C)(C)OC(=O)N1CCc2c(n(C/C=C/c3ccccc3)[nH]c2=O)C1 | > 100 µM | > 100 µM | > 100 µM | > 100 µM | > 100 µM | > 100 µM | > 100 µM | > 100 µM | > 100 µM | > 100 µM | – | – | – | –
O=C1C=C(N2CCN(c3ccccn3)CC2)C(=O)c2c(O)ccc(O)c21 | 16 µM | 51.3 µM | 23 µM | > 65.7 µM | > 54.1 µM | > 70.3 µM | > 36.8 µM | > 50.7 µM | 20.3 µM | > 56.2 µM | – | – | – | –
NC(=O)C1=CC2C3C=CC2(O)C(=O)OC3O1 (centres undefined) | 16.1 µM | 57.4 µM | 40.5 µM | 13.5 µM | 6.73 µM | 5.57 µM | 9.8 µM | 5.48 µM | 24.7 µM | 20.9 µM | – | – | – | –
Cc1ccc(/C=C2\CN(C)CC3C2=NC(=S)NC3c2ccc(C)cc2)cc1 (centres undefined) | > 71.7 µM | > 100 µM | > 87.4 µM | > 40.3 µM | > 31.1 µM | > 100 µM | 54.5 µM | > 100 µM | > 100 µM | > 100 µM | – | – | – | –
CCN(CC)CCN(C)CCc1ccc(Br)cc1 | 39.5 µM | > 100 µM | > 100 µM | > 100 µM | > 100 µM | > 100 µM | > 100 µM | > 100 µM | > 100 µM | > 100 µM | – | – | – | –
CC1=C2NCN(C)N=C2C(C#N)(C#N)C1(C#N)C#N | 19.9 µM | > 100 µM | > 76.9 µM | > 57.3 µM | 32 µM | > 96.3 µM | 7.86 µM | 35.8 µM | 66.8 µM | > 76.6 µM | – | – | – | –
CCCNC(=O)CCC(C)[C@H]1CCC2C3C(C[C@H](OC(C)=O)[C@@]21C)[C@@]1(C)CCC2(C[C@H]1C[C@H]3OC(C)=O)OOC1(CCCCC1)OO2 (some centres undefined) | 3.64 µM | > 100 µM | 3.84 µM | 3.95 µM | 3.82 µM | > 53 µM | 4.95 µM | 4.7 µM | 5.3 µM | 10.4 µM | 1.42 µM | – | – | –
CC(=O)O[C@H]1C(=O)N(c2cc3c4ccccc4ccc3c3ccccc23)[C@@H]1c1ccccc1 | 18.1 µM | 35.8 µM | > 100 µM | 74.2 µM | 45.7 µM | 25.1 µM | > 100 µM | 40.3 µM | 4.86 µM | > 100 µM | – | – | – | –
Cn1c(=O)sc2cc(C(=S)N3CCOCC3)ccc21 | > 100 µM | > 100 µM | > 100 µM | > 100 µM | > 100 µM | > 100 µM | > 100 µM | > 100 µM | > 100 µM | > 100 µM | – | – | – | –
CCCCCCOP(=O)(OCCCCCC)OC(C(=O)OC)C(F)(F)F (centres undefined) | > 100 µM | > 100 µM | > 100 µM | > 100 µM | > 100 µM | > 100 µM | > 100 µM | > 100 µM | > 100 µM | > 100 µM | – | – | – | –
CC(C)=CCC[C@@H](C)c1c2[nH]c3ccccc3sc-2c(C)c(=O)c1=O | > 66.7 µM | > 75 µM | > 75 µM | > 75 µM | > 75 µM | > 48.9 µM | > 42.4 µM | > 61.6 µM | > 45.1 µM | > 35.3 µM | – | – | – | –
CCOC(=O)/C(C#N)=C/N(CC)/N=C/c1ccccc1 | > 100 µM | > 100 µM | > 100 µM | > 100 µM | > 100 µM | > 100 µM | > 100 µM | > 100 µM | > 100 µM | > 100 µM | – | – | – | –
CC(C)(C)CC(C)(C)c1ccc(OCCOCC[N+](C)(C)Cc2ccccc2)cc1 | 2.91 µM | 2.94 µM and 25.7 µM | 4.44 µM | 16.9 µM | 2.27 µM and 4.76 µM | 4.81 µM | 6.36 µM | – | 6.8 µM | 5.92 µM | 0.94 µM | 1.46 µM | 1.61 µM | 1.75 µM
CC(C)C1CC(CO)(CNc2cc(Cl)nc(N)n2)C1 (centres undefined) | > 100 µM | > 100 µM | > 100 µM | > 100 µM | > 100 µM | > 100 µM | > 100 µM | > 100 µM | > 100 µM | > 100 µM | – | – | – | –

— PubChem BioAssay (NCI)
